Test results reported in ChEMBL document CHEMBL4665624, “Synthesis of 5-(4-(1H-phenanthro[9,10-d]imidazol-2-yl)benzylidene)thiazolidine-2,4-dione as promising DNA and serum albumin-binding agents and evaluation of antitumor activity” (Eur J Med Chem, 2019).

Assays:
[1] = test system: HL-60(TB); experiment: Antitumor activity against human HL-60(TB) cells assessed as cell growth inhibition at 10 uM incubated for 48 hrs by sulforhodamine B assay; assay type: functional; settings: read-out: GI
[2] = test system: PC-3; experiment: Antitumor activity against human PC-3 cells assessed as cell growth inhibition at 10 uM incubated for 48 hrs by sulforhodamine B assay; assay type: functional; settings: read-out: GI
[3] = test system: SNB-75; experiment: Antitumor activity against human SNB-75 cells assessed as cell growth inhibition at 10 uM incubated for 48 hrs by sulforhodamine B assay; assay type: functional; settings: read-out: GI
[4] = test system: SF-268; experiment: Antitumor activity against human SF268 cells assessed as cell growth inhibition at 10 uM incubated for 48 hrs by sulforhodamine B assay; assay type: functional; settings: read-out: GI
[5] = test system: HCT-116; experiment: Antitumor activity against human HCT116 cells assessed as cell growth inhibition at 10 uM incubated for 48 hrs by sulforhodamine B assay; assay type: functional; settings: read-out: GI
[6] = test system: 786-0; experiment: Antitumor activity against human 786-0 cells assessed as cell growth inhibition at 10 uM incubated for 48 hrs by sulforhodamine B assay; assay type: functional; settings: read-out: GI
[7] = test system: LOX IMVI; experiment: Antitumor activity against human LOX IMVI cells assessed as cell growth inhibition at 10 uM incubated for 48 hrs by sulforhodamine B assay; assay type: functional; settings: read-out: GI
[8] = test system: SF-295; experiment: Antitumor activity against human SF295 cells assessed as cell growth inhibition at 10 uM incubated for 48 hrs by sulforhodamine B assay; assay type: functional; settings: read-out: GI
[9] = test system: MDA-MB-468; experiment: Antitumor activity against human MDA-MB-468 cells assessed as cell growth inhibition at 10 uM incubated for 48 hrs by sulforhodamine B assay; assay type: functional; settings: read-out: GI
[10] = test system: CCRF-CEM; experiment: Antitumor activity against human CCRF-CEM cells assessed as cell growth inhibition at 10 uM incubated for 48 hrs by sulforhodamine B assay; assay type: functional; settings: read-out: GI
[11] = test system: IGROV-1; experiment: Antitumor activity against human IGROV1 cells assessed as cell growth inhibition at 10 uM incubated for 48 hrs by sulforhodamine B assay; assay type: functional; settings: read-out: GI
[12] = test system: UO-31; experiment: Antitumor activity against human UO-31 cells assessed as cell growth inhibition at 10 uM incubated for 48 hrs by sulforhodamine B assay; assay type: functional; settings: read-out: GI
[13] = test system: NCI-H460; experiment: Antitumor activity against human NCI-H460 assessed as cell growth inhibition at 10 uM incubated for 48 hrs by sulforhodamine B assay; assay type: functional; settings: read-out: GI
[14] = test system: BT-549; experiment: Antitumor activity against human BT-549 cells assessed as cell growth inhibition at 10 uM incubated for 48 hrs by sulforhodamine B assay; assay type: functional; settings: read-out: GI
[15] = test system: KM12; experiment: Antitumor activity against human KM12 cells assessed as cell growth inhibition at 10 uM incubated for 48 hrs by sulforhodamine B assay; assay type: functional; settings: read-out: GI
[16] = test system: SK-MEL-28; experiment: Antitumor activity against human SK-MEL-28 cells assessed as cell growth inhibition at 10 uM incubated for 48 hrs by sulforhodamine B assay; assay type: functional; settings: read-out: GI
[17] = test system: COLO 205; experiment: Antitumor activity against human COLO205 cells assessed as cell growth inhibition at 10 uM incubated for 48 hrs by sulforhodamine B assay; assay type: functional; settings: read-out: GI
[18] = test system: MDA-MB-435; experiment: Antitumor activity against human MDA-MB-435 cells assessed as cell growth inhibition at 10 uM incubated for 48 hrs by sulforhodamine B assay; assay type: functional; settings: read-out: GI
[19] = test system: SR; experiment: Antitumor activity against human SR cells assessed as cell growth inhibition at 10 uM incubated for 48 hrs by sulforhodamine B assay; assay type: functional; settings: read-out: GI
[20] = test system: U-251; experiment: Antitumor activity against human U251 cells assessed as cell growth inhibition at 10 uM incubated for 48 hrs by sulforhodamine B assay; assay type: functional; settings: read-out: GI
[21] = test system: M14; experiment: Antitumor activity against human M14 cells assessed as cell growth inhibition at 10 uM incubated for 48 hrs by sulforhodamine B assay; assay type: functional; settings: read-out: GI
[22] = test system: SNB-19; experiment: Antitumor activity against human SNB-19 cells assessed as cell growth inhibition at 10 uM incubated for 48 hrs by sulforhodamine B assay; assay type: functional; settings: read-out: GI
[23] = test system: HCC 2998; experiment: Antitumor activity against human HCC2998 cells assessed as cell growth inhibition at 10 uM incubated for 48 hrs by sulforhodamine B assay; assay type: functional; settings: read-out: GI
[24] = test system: RXF 393; experiment: Antitumor activity against human RXF 393 cells assessed as cell growth inhibition at 10 uM incubated for 48 hrs by sulforhodamine B assay; assay type: functional; settings: read-out: GI
[25] = test system: SK-OV-3; experiment: Antitumor activity against human SK-OV-3 cells assessed as cell growth inhibition at 10 uM incubated for 48 hrs by sulforhodamine B assay; assay type: functional; settings: read-out: GI
[26] = test system: NCI-H23; experiment: Antitumor activity against human NCI-H23 cells assessed as cell growth inhibition at 10 uM incubated for 48 hrs by sulforhodamine B assay; assay type: functional; settings: read-out: GI
[27] = test system: SN12C; experiment: Antitumor activity against human SN12C cells assessed as cell growth inhibition at 10 uM incubated for 48 hrs by sulforhodamine B assay; assay type: functional; settings: read-out: GI
[28] = test system: HCT-15; experiment: Antitumor activity against human HCT15 cells assessed as cell growth inhibition at 10 uM incubated for 48 hrs by sulforhodamine B assay; assay type: functional; settings: read-out: GI
[29] = test system: ACHN; experiment: Antitumor activity against human ACHN cells assessed as cell growth inhibition at 10 uM incubated for 48 hrs by sulforhodamine B assay; assay type: functional; settings: read-out: GI
[30] = test system: A498; experiment: Antitumor activity against human A498 cells assessed as cell growth inhibition at 10 uM incubated for 48 hrs by sulforhodamine B assay; assay type: functional; settings: read-out: GI
[31] = test system: OVCAR-4; experiment: Antitumor activity against human OVCAR-4 cells assessed as cell growth inhibition at 10 uM incubated for 48 hrs by sulforhodamine B assay; assay type: functional; settings: read-out: GI
[32] = test system: UACC-62; experiment: Antitumor activity against human UACC-62 cells assessed as cell growth inhibition at 10 uM incubated for 48 hrs by sulforhodamine B assay; assay type: functional; settings: read-out: GI
[33] = test system: NCI-H226; experiment: Antitumor activity against human NCI-H226 assessed as cell growth inhibition at 10 uM incubated for 48 hrs by sulforhodamine B assay; assay type: functional; settings: read-out: GI
[34] = test system: Malme-3M; experiment: Antitumor activity against human MALME-3M cells assessed as cell growth inhibition at 10 uM incubated for 48 hrs by sulforhodamine B assay; assay type: functional; settings: read-out: GI
[35] = test system: OVCAR-8; experiment: Antitumor activity against human OVCAR-8 cells assessed as cell growth inhibition at 10 uM incubated for 48 hrs by sulforhodamine B assay; assay type: functional; settings: read-out: GI
[36] = test system: OVCAR-3; experiment: Antitumor activity against human OVCAR-3 cells assessed as cell growth inhibition at 10 uM incubated for 48 hrs by sulforhodamine B assay; assay type: functional; settings: read-out: GI
[37] = test system: RPMI-8226; experiment: Antitumor activity against human RPMI8226 cells assessed as cell growth inhibition at 10 uM incubated for 48 hrs by sulforhodamine B assay; assay type: functional; settings: read-out: GI
[38] = test system: MDA-MB-231; experiment: Antitumor activity against human MDA-MB-231/ATCC cells assessed as cell growth inhibition at 10 uM incubated for 48 hrs by sulforhodamine B assay; assay type: functional; settings: read-out: GI
[39] = test system: NCI-H522; experiment: Antitumor activity against human NCI-H522 cells assessed as cell growth inhibition at 10 uM incubated for 48 hrs by sulforhodamine B assay; assay type: functional; settings: read-out: GI
[40] = test system: MOLT-4; experiment: Antitumor activity against human MOLT4 cells assessed as cell growth inhibition at 10 uM incubated for 48 hrs by sulforhodamine B assay; assay type: functional; settings: read-out: GI
[41] = test system: HOP-92; experiment: Antitumor activity against human HOP92 cells assessed as cell growth inhibition at 10 uM incubated for 48 hrs by sulforhodamine B assay; assay type: functional; settings: read-out: GI
[42] = test system: HT-29; experiment: Antitumor activity against human HT-29 cells assessed as cell growth inhibition at 10 uM incubated for 48 hrs by sulforhodamine B assay; assay type: functional; settings: read-out: GI
[43] = test system: EKVX; experiment: Antitumor activity against human EKVX cells assessed as cell growth inhibition at 10 uM incubated for 48 hrs by sulforhodamine B assay; assay type: functional; settings: read-out: GI
[44] = test system: SW-620; experiment: Antitumor activity against human SW620 cells assessed as cell growth inhibition at 10 uM incubated for 48 hrs by sulforhodamine B assay; settings: SW-620, 48 h, read-out: GI
[45] = test system: Hs-578T; experiment: Antitumor activity against human HS 578T cells assessed as cell growth inhibition at 10 uM incubated for 48 hrs by sulforhodamine B assay; assay type: functional; settings: read-out: GI
[46] = test system: MCF7; experiment: Antitumor activity against human MCF7 cells assessed as cell growth inhibition at 10 uM incubated for 48 hrs by sulforhodamine B assay; assay type: functional; settings: read-out: GI
[47] = test system: NCI/ADR-RES; experiment: Antitumor activity against human NCI/ADR-RES cells assessed as cell growth inhibition at 10 uM incubated for 48 hrs by sulforhodamine B assay; assay type: functional; settings: read-out: GI
[48] = test system: K562; experiment: Antitumor activity against human K562 cells assessed as cell growth inhibition at 10 uM incubated for 48 hrs by sulforhodamine B assay; assay type: functional; settings: read-out: GI

## CCN(CC)c1ccc(-c2nc3c4ccccc4c4ccccc4c3[nH]2)c(O)c1
[1]
  inhibition of growth at 10 µM: < 10%
[2]
  inhibition of growth at 10 µM: < 10%
[3]
  inhibition of growth at 10 µM: < 10%
[4]
  inhibition of growth at 10 µM: < 10%
[5]
  inhibition of growth at 10 µM: < 10%
[6]
  inhibition of growth at 10 µM: < 10%
[7]
  inhibition of growth at 10 µM: 11.7%
[8]
  inhibition of growth at 10 µM: < 10%
[9]
  inhibition of growth at 10 µM: < 10%
[10]
  inhibition of growth at 10 µM: < 10%
[11]
  inhibition of growth at 10 µM: < 10%
[12]
  inhibition of growth at 10 µM: 24.4%
[13]
  inhibition of growth at 10 µM: < 10%
[14]
  inhibition of growth at 10 µM: < 10%
[15]
  inhibition of growth at 10 µM: < 10%
[16]
  inhibition of growth at 10 µM: < 10%
[17]
  inhibition of growth at 10 µM: < 10%
[18]
  inhibition of growth at 10 µM: < 10%
[19]
  inhibition of growth at 10 µM: 15.8%
[20]
  inhibition of growth at 10 µM: < 10%
[21]
  inhibition of growth at 10 µM: < 10%
[22]
  inhibition of growth at 10 µM: < 10%
[23]
  inhibition of growth at 10 µM: < 10%
[24]
  inhibition of growth at 10 µM: < 10%
[25]
  inhibition of growth at 10 µM: 10.1%
[26]
  inhibition of growth at 10 µM: < 10%
[27]
  inhibition of growth at 10 µM: < 10%
[28]
  inhibition of growth at 10 µM: 13.8%
[29]
  inhibition of growth at 10 µM: < 10%
[30]
  inhibition of growth at 10 µM: < 10%
[31]
  inhibition of growth at 10 µM: < 10%
[32]
  inhibition of growth at 10 µM: 20.1%
[33]
  inhibition of growth at 10 µM: < 10%
[34]
  inhibition of growth at 10 µM: < 10%
[35]
  inhibition of growth at 10 µM: < 10%
[36]
  inhibition of growth at 10 µM: < 10%
[37]
  inhibition of growth at 10 µM: < 10%
[38]
  inhibition of growth at 10 µM: 19.4%
[39]
  inhibition of growth at 10 µM: 10.4%
[40]
  inhibition of growth at 10 µM: < 10%
[41]
  inhibition of growth at 10 µM: 24.2%
[42]
  inhibition of growth at 10 µM: < 10%
[43]
  inhibition of growth at 10 µM: 18.2%
[44]
  inhibition of growth at 10 µM: < 10%
[45]
  inhibition of growth at 10 µM: < 10%
[46]
  inhibition of growth at 10 µM: 23.8%
[47]
  inhibition of growth at 10 µM: < 10%
[48]
  inhibition of growth at 10 µM: 20.5%
